{"source": "patent US12201679B2", "about": "“Epitope-targeted peptide immunostimulants” (priority 2019, dated 2025)", "key": {"[1]": {"tested_on": "K. pneumoniae cells (strain BAA 2146)", "test": "Flow cytometry, recruitment of fluorescent anti-DNP antibodies", "assay_type": "cell-based, Klebsiella pneumoniae", "conditions": "cy(LLFFF)-DNP 1 or 5 μM; cy(HNGPT) 50 μM; plus fluorescent anti-DNP", "method": "To test this, cells were incubated with DNP-conjugated EPIs and then fluorescently labeled anti-DNP antibody (Alexafluor488), and subsequently quantified the fluorescence of cells by using flow cytometry.\nCytometry measurements were gated for single cells, and each distribution comprises >18,000 cells.\nCytometry measurements were used to quantify AR-PCC-driven opsonization and opsonophagocytic killing of K. pneumoniae cells. For these measurements, K. pneumoniae cells were cultured in G-CAA medium overnight, washed, incubated with DNP-tagged AR-PCC at a desired concentration, washed, incubated with anti-DNP antibody conjugated with Alexafluor488, washed, then resuspended in PBS media. The samples were stored at 4° C. for 2 d before cytometry measurements were performed. The cytometer was calibrated by using Rainbow fluorescent beads (3.5 μm diameter) 3.5 m from BD (559123), which aided identification of single K. pneumoniae cells in subsequent measurements. Samples were excited with 488 nm light and the fluorescence emission at 530 nm was measured. Sample with no Alexaflour488 stain was used as fluorescent minus one (FMO) control for gating of DNP+ population. FACS data was analyzed on FlowJo v10 software, and the resulting histograms each include fluorescence data from >18,000 cells for strain BAA 2146 (FIG. 4B) and >4,000 cells for strain BAA 1705 (data not shown)."}, "[2]": {"tested_on": "K. pneumoniae cells (strain BAA 1705)", "test": "Gentamicin protection assay: phagocytosis and opsonophagocytic killing (OPK) by macrophages", "assay_type": "cell-based, Klebsiella pneumoniae", "conditions": "for colony counts at 1 h, EPI plus anti-DNP antibody: 5 μM AR-PCC, murine BMDMs; for phagocytosis at 1 h, AR-PCC only (no anti-DNP): control samples", "procedure": "It also tested whether DNP-conjugated EPIs could promote the opsonophagocytic killing (OPK) of K. pneumoniae by macrophages. This was tested by using an OPK assay. Briefly, K. pneumoniae cells were treated with EPI and then anti-DNP antibody before being exposed to macrophages for either 6 or 24 hours. During this incubation period, macrophages that recognize K. pneumoniae cells will phagocytose them, and phagocytosed bacteria will remain viable for up to 6 hours, but within 24 hours are rendered inviable by OPK. Thus, macrophages were isolated after 6 and 24 hours of incubation with K. pneumoniae, lysed them, and plated and grew the lysate, which yielded bacterial colonies that reflect the phagocytosis (at 6 hrs) or OPK (at 24 hrs) of bacteria.\nGiven that cy(LLFFF)-DNP (SEQ ID NO:5) recruits antibodies to K. pneumoniae surfaces, it was expected that K. pneumoniae opsonized in this manner would be more susceptible to phagocytosis by macrophages. AR-PCC-driven phagocytosis and OPK were quantified by a gentamicin protection assay, as depicted in FIG. 7A. For this assay, K. pneumoniae cells (strain BAA 1705) were treated with cy(LLFFF)-DNP (SEQ ID NO:5), opsonized by anti-DNP antibodies, and then incubated with murine bone-marrow-derived macrophages (BMDMs). BMDMs were subsequently exposed to a solution containing gentamicin, to which K. pneumoniae strain BAA 1705 is susceptible, to kill any extracellular bacteria. Phagocytosed bacteria remain viable inside BMDMs for at least 1 h, yet are rendered inviable after 24 h by OPK (FIG. 13). Macrophages harvested at 1 h and 24 h were lysed and plated to generate bacterial colonies, which were enumerated to quantify phagocytosis and OPK.\nKlebsiella pneumoniae BAA1705 was treated with DNP-PCCs followed by incubation with anti-DNP antibody, as described above in the “Cell-Based ELISAs” section. These opsonized bacteria were then used to infect BMDMs at a multiplicity of infection of 50 for 0.5 h at 37° C. Bacteria were then washed by using RPMI 1640 Media and BMDMs were left in cell culture medium containing gentamicin (100 μg/ml). After 1 h and 24 h BMDMs were washed to remove gentamicin and intracellular bacteria were harvested by lysing BMDMs in RPMI media containing 0.2% Triton X 100. Bacterial CFUs were enumerated by plating onto LB agar. Bacterial counts at 1 h indicated the degree of opsonization while those at 24 h served as a measure of microbicidal activity of macrophages. For these measurements, anti-MrkA antibody and K. pneumoniae antiserum were used at dilutions of 5 μg/mL each."}, "[3]": {"tested_on": "wild type KPPR1 (ATCC 43816) cells", "test": "Whole-cell ELISA, biotinylated PCC, wild type KPPR1", "assay_type": "cell-based, Klebsiella pneumoniae", "conditions": "biotinylated PCC 5 μM down to 5 nM, G-CAA media", "procedure": "In this assay, bacteria are exposed to biotinylated PCC ligands, then SAv-horseradish peroxidase (SAv-HRP), and then developed to produce a colorometric signal that correlates with SAv-HRP binding.\nWhole-cell ELISA assays were conducted on the wild type version of the clinically-relevant strain of K. pneumoniae, KPPR1 (ATCC 43816). Wild type KPPR1 cells were cultured in G-CAA media to promote fimbrial expression (54), and MrkA expression in KPPR1 was confirmed by a western blot (FIG. 5B inset, full blot in FIG. 9).\n(§1) Detection of the binding of biotinylated PCCs to bacterial surface was performed as follows. 10^8 bacteria from a culture grown overnight were used for each test. Bacteria were incubated with PBS containing 1% BSA (PBS-BSA) for 1 h at 37° C., washed once with PBS, and then incubated with 5 μM of the biotinylated PCC in PBS-BSA for 1 h at 37° C. After washing thrice with PBS to remove unbound PCCs, bacteria were incubated with Streptavidin-HRP (1:1000) for 1 h at 37° C. Bacteria were washed thoroughly and the TMB reagent was added until visible coloration was observed. The reaction was quenched using 2N H2SO4 and absorbance was measured at 450 nm."}, "[4]": {"tested_on": "MrkA-knockout KPPR1 cells", "test": "Whole-cell ELISA, biotinylated PCC, MrkA-knockout KPPR1", "assay_type": "cell-based, Klebsiella pneumoniae", "procedure": "ELISA signals were only observed for K. pneumoniae cells (strain BAA 1705) cultured in G-CAA (FIG. 11A), when treated with PCCs at concentrations of 5 μM or lower.\nas §1"}, "[5]": {"tested_on": "K. pneumoniae (strains BAA 1705 & 2146)", "test": "Whole-cell ELISA, biotinylated PCC, multidrug-resistant K. pneumoniae", "assay_type": "cell-based, Klebsiella pneumoniae", "conditions": "for whole-cell ELISA signal, K. pneumoniae BAA 1705 and BAA 2146: biotinylated PCC at 5 μM, FIG. 5C", "procedure": "as §1, with “Bacteria were incubated with PBS containing 1% BSA (PBS-BSA) for 1 h at 37° C., washed once with PBS, and then incubated with 5 μM of the biotinylated PCC in PBS-BSA for 1 h at 37° C.” left out"}, "Escherichia coli": {"tested_on": "Escherichia coli", "test": "Whole-cell ELISA, biotinylated PCC, E. coli", "assay_type": "cell-based", "conditions": "biotinylated PCC at 5 μM, FIG. 5C", "procedure": "(§2) Whole-cell ELISA data in FIG. 5C show strong signal from the two strains of K. pneumoniae (BAA 1705 and BAA 2146) but only weak signals from Escherichia coli (E. coli) or Salmonella typhimurium (S. typhimurium) cells. […] In these tests, droplets of phosphate buffered solution containing live bacteria or heat-killed bacteria and various concentrations of (NH4)2SO4 at 10 m or 30 m following mixing were imaged. Aggregation in each droplet was assessed by visual inspection and scored as indicating non-aggregated, low levels of aggregation, or extensive aggregation. All droplets were on a single glass slide and image acquisition of all droplets took less than a minute for each 10 m and 30 m time point.\nas §1"}, "Salmonella typhimurium": {"tested_on": "Salmonella typhimurium", "test": "Whole-cell ELISA, biotinylated PCC, S. typhimurium", "assay_type": "cell-based", "conditions": "biotinylated PCC at 5 μM, FIG. 5C", "procedure": "as §2, §1"}, "[6]": {"target": "full-length recombinant MrkA protein (Klebsiella pneumoniae, UniProt P12267)", "sequence (P12267 23-202)": "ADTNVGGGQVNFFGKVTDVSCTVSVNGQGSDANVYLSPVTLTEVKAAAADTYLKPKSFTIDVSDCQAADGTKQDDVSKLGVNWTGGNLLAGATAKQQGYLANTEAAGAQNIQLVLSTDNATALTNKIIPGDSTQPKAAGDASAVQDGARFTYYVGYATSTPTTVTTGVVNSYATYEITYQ", "assay_type": "binding", "from_the_text": "HPraGly is present before X1 in each peptide and Az4 follows X5 in each peptide."}, "[7]": {"test": "Isocratic point, elution from C18 prep-scale column", "assay_type": "physicochemical", "conditions": "elution from C18 column", "procedure": "PCC compounds were purified on a Waters Autopurification system, which isolated compounds based on MS peaks corresponding to protonated [M+1H]^+ and [M+2H]^2+, and/or sodium adducts [M+Na]^+ and [M+2Na]^2+. The isocratic points of PCCs were determined based on the elution of the compound from a C18 prep-scale column. Synthetic epitopes were either purified on the Waters Autopurification System, or by semi-preparative HPLC and then using matrix-assisted laser desorption/ionization mass spectroscopy to identify fractions with the desired m/z ratio. The resulting peptides were lyophilized, the yield determined by mass difference or UV-visible absorbance, and resuspended at a concentration of up to 10 mM peptide in DMSO. Peptides were stored at −80° C. before thawing for each use."}, "[8]": {"conditions": "strain BAA 1705, PCC 5 μM to 5 nM"}}, "note": "Several values for one entry are separate records, joined by “and”; a condition that tells them apart may be missing. Identical values can stand only once. Entries after “also recorded” stand apart in the source; their conditions may differ. Like-named read-outs stand apart in the source and are kept apart here. Bridge positions count the residues as written; N and C are the ends. Square brackets hold non-standard residues; d marks the D form. Triazole bridges read from a SMILES are 1,4-linked. Ends that are not written are not given here. Peptide text beside a SMILES is read from it. * marks the point of attachment. Biotin = O=C1N[C@H]2[C@H](CS[C@H]2CCCCC(=O)*)N1; PEG10 = NCCOCCOCCOCCOCCOCCOCCOCCOCCOCCOCCC(=O)O; Lys(N3) = [N-]=[N+]=NCCCC[C@H](N)C(=O)O; PEG5 = NCCOCCOCCOCCOCCOCCC(=O)O; Pra = C#CC[C@H](N)C(=O)O"}
{"compound": "cy(LLFFF)-DNP (cyclo(LLFFF); also: DNP label)", "values": [{"measurement": "fluorescence of cells", "setting": "[1]", "value": "much higher fluorescence"}, {"measurement": "colony counts at 1 h, EPI plus anti-DNP antibody", "setting": "[2]; 1 h", "value": "89,000 CFU and 85,000 CFU"}, {"measurement": "phagocytosis at 1 h, AR-PCC only (no anti-DNP)", "setting": "[2]; 1 h", "value": "None of these treatments elicited phagocytosis above basal levels"}, {"measurement": "level of phagocytosis lower than K. pneumoniae antiserum and anti-MrkA treatment", "setting": "[2]; plus anti-DNP, 1 h", "value": "about 15%"}]}
{"compound": "cy(LLFFA) (cyclic)", "values": [{"measurement": "whole-cell ELISA signal, wild type KPPR1", "setting": "[3]", "value": "much lower intensities; also recorded: Much lower binding"}, {"measurement": "whole-cell ELISA signal, MrkA-knockout KPPR1", "setting": "[4]", "value": "comparable to baseline; also recorded: Much lower binding"}, {"measurement": "whole-cell ELISA signal, K. pneumoniae BAA 1705 and BAA 2146", "setting": "[5]", "value": "low signals; also recorded: no or minimal binding above baseline"}, {"measurement": "whole-cell ELISA binding at high PCC concentration", "setting": "[5]; strain BAA 1705, 50 μM PCC, LB or G-CAA", "value": "bound K. pneumoniae cells regardless of MrkA-expression level; also recorded: strong and comparable ELISA signals"}, {"measurement": "whole-cell ELISA 450 nm absorbance, cells cultured in G-CAA (high MrkA)", "setting": "[5]; [8]", "value": "near-baseline absorbances"}, {"measurement": "whole-cell ELISA 450 nm absorbance, cells cultured in LB (low MrkA)", "setting": "[5]; [8]", "value": "near-baseline absorbances"}, {"measurement": "whole-cell ELISA signal, E. coli", "setting": "Escherichia coli", "value": "low signals"}, {"measurement": "whole-cell ELISA signal, S. typhimurium", "setting": "Salmonella typhimurium", "value": "low signals"}, {"measurement": "colony counts at 1 h, EPI plus anti-DNP antibody", "setting": "[2]; 1 h", "value": "85,000 CFU"}]}
{"compound": "cy(LLFFF)+R6-DNP (LLFFFRRRRRR; not fully specified (C-terminus); printed as cy(LLFFF)+R6-DNP; also: cyclic over residues 1-5, ring closure not given here)", "values": [{"measurement": "colony counts at 1 h, EPI plus anti-DNP antibody", "setting": "[2]; 1 h", "value": "85,000 CFU"}, {"measurement": "phagocytosis at 1 h, AR-PCC only (no anti-DNP)", "setting": "[2]; 1 h", "value": "None of these treatments elicited phagocytosis above basal levels"}]}
{"compound": "cy(LLFFA)-DNP (not fully specified (bridges); printed as cy(LLFFA)-DNP; also: DNP label)", "values": [{"measurement": "phagocytosis at 1 h, DNP-tagged AR-PCC plus anti-DNP (words)", "setting": "[2]; 1 h, FIG. 7B", "value": "None of these treatments elicited phagocytosis above basal levels"}, {"measurement": "phagocytosis at 1 h, AR-PCC only (no anti-DNP)", "setting": "[2]; 1 h", "value": "None of these treatments elicited phagocytosis above basal levels"}]}
{"compound": "cy(HNGPT) (not fully specified (bridges); printed as cy(HNGPT); also: cyclic, closure not given here) [reference compound]", "values": [{"measurement": "whole-cell ELISA signal, K. pneumoniae BAA 1705 and BAA 2146", "setting": "[5]", "value": "comparably lower signal; also recorded: no or minimal binding above baseline"}, {"measurement": "fluorescence of cells", "setting": "[1]", "value": "Slightly greater fluorescence"}, {"measurement": "CFU, DNP-conjugated EPI plus anti-DNP, macrophages harvested at 6 hrs", "setting": "[2]; 6 hrs", "value": "almost identical CFU count"}, {"measurement": "cell counts, DNP-conjugated EPI only (no antibody), macrophages harvested at 6 hrs", "setting": "[2]; 6 hrs", "value": "~35,000"}]}
{"compound": "NC(=O)[C@@H]1CCCCn2cc(nn2)C[C@H](NC(=O)CCOCCOCCOCCOCCOCCOCCOCCOCCOCCOCCNC(=O)CCCC[C@@H]2SC[C@@H]3NC(=O)N[C@@H]32)C(=O)N[C@@H](Cc2ccccc2)C(=O)N[C@@H](Cc2ccccc2)C(=O)N[C@@H](Cc2ccccc2)C(=O)N1", "note": "[compound 23] ({Biotin-PEG10}-[Pra]FFF[Lys(N3)]-NH2; triazole 1-5)", "values": [{"measurement": "Relative affinity (ratio of ELISA signal versus cy(LLFFF))", "setting": "[6]; ELISA 6, [MrkA] 25 nM", "value": 0.14}, {"measurement": "Isocratic point (%)", "setting": "[7]", "value": 60.27, "unit": "%"}]}
{"compound": "C[C@@H](O)[C@@H]1NC(=O)[C@@H](NC(=O)CCOCCOCCOCCOCCOCCNC(=O)CCCC[C@@H]2SC[C@@H]3NC(=O)N[C@@H]32)Cc2cn(nn2)CCCC[C@@H](C(N)=O)NC(=O)[C@H](Cc2ccccc2)NC(=O)[C@H](Cc2ccccc2)NC(=O)[C@H](Cc2ccccc2)NC(=O)[C@H]([C@@H](C)O)NC1=O", "note": "[compound 13] ({Biotin-PEG5}-[Pra]TTFFF[Lys(N3)]-NH2; triazole 1-7)", "values": [{"measurement": "Relative affinity (ratio of ELISA signal versus cy(LLFFF))", "setting": "[6]; ELISA 4, [MrkA] 100 nM", "value": 0.04}, {"measurement": "Isocratic point (%)", "setting": "[7]", "value": 53.40, "unit": "%"}]}
{"compound": "CC(C)C[C@@H]1NC(=O)[C@@H](NC(=O)CCOCCOCCOCCOCCOCCOCCOCCOCCOCCOCCNC(=O)CCCC[C@@H]2SC[C@@H]3NC(=O)N[C@@H]32)Cc2cn(nn2)CCCC[C@@H](C(N)=O)NC(=O)[C@H](Cc2ccccc2)NC(=O)[C@H](Cc2ccccc2)NC(=O)[C@H](CC(C)C)NC1=O", "note": "[compound 21] ({Biotin-PEG10}-[Pra]LLFF[Lys(N3)]-NH2; triazole 1-6)", "values": [{"measurement": "Relative affinity (ratio of ELISA signal versus cy(LLFFF))", "setting": "[6]; ELISA 6, [MrkA] 25 nM", "value": 0.14}, {"measurement": "Isocratic point (%)", "setting": "[7]", "value": 64.99, "unit": "%"}]}
